Test: Distribution of 99mTc-EHDP and 85Sr in rabbits, simultaneous study (Example 2, Table 1)
Format: in vivo, New Zealand albino rabbits
Experimental: Adult New Zealand albino rabbits having an average weight of 3.8 kg were utilized. Strontium-85 was employed as a standard for comparison. […] Each dosage is contained in a volume of 1 ml.
The animals were sacrificed serially from 1 to 24 hours after injection and the activities in major organs were determined by counting multiple samples from each organ in a scintillation well counter (the technetium-99m counts were corrected for the Compton contributions from the strontium-85 activity in the technetium-99m energy window). Multiple samples were counted from the tibia, femur, spine and pelvic bones; the total activity in the skeleton was estimated by assuming the whole skeleton consisted of equal proportions by weight of tibia, spine, femur and pelvis and that the skeletal mass was 10% of the body weight. The red marrow was sampled from the femur and the total marrow was assumed to be 2.2% of the total body weight. Similarly, blood volume was assumed to be 7% and the skeletal muscle 43% of the body weight. The whole liver and both kidneys were weighed and multiple samples from each were counted to measure the total activity in each organ.
In another series of experiments carried out as described above, localization of technetium from its tin-phosphonate complex was determined in the callous of three week-old fractures of tibia in albino rabbits, again in comparison with strontium-85. Comparative radioassay of technetium-99m administered as the pertechnetate was measured in the callous of tibial fractures in rabbits at one and four hours after administration.

Structure (SMILES): [85Sr] [^85 Sr]
- % Dose in Whole Organ: Kidneys (1 Hr): 0.80 % dose
- % Dose in Whole Organ: Liver (1 Hr): 1.57 % dose
- % Dose in Whole Organ: One Femur (1 Hr): 1.04 % dose
- % Dose: Urine (1 Hr): 6.96 % dose
- % dose in whole organ: Blood (7% of body weight) (1 Hr): 11.9 % dose
- % dose in whole organ: Bone(Avg) (10% of body weight) (1 Hr): 56.0 % dose
- % dose in whole organ: Marrow (2.2% of body weight) (1 Hr): 0.91 % dose
- % dose in whole organ: Muscle (43% of body weight) (1 Hr): 13.4 % dose
- Bone/Muscle ratio (1 Hr): 19
- Ratio Bone/Blood (1 Hr): 3.4
- Ratio Bone/Marrow (1 Hr): 14
- Ratio Callus/N. Femur (1 Hr): 7
- Ratio Callus/N. Tibia (1 Hr): 9
- Ratio Plus/Blood (1 Hr): 18
- % Dose in Whole Organ: Kidneys (2 Hrs): 0.64 % dose
- % Dose in Whole Organ: Liver (2 Hrs): 0.98 % dose
- % Dose in Whole Organ: One Femur (2 Hrs): 1.21 % dose
- % Dose: Urine (2 Hrs): 18.0 % dose
- % dose in whole organ: Blood (7% of body weight) (2 Hrs): 7.08 % dose
- % dose in whole organ: Bone(Avg) (10% of body weight) (2 Hrs): 49.4 % dose
- % dose in whole organ: Marrow (2.2% of body weight) (2 Hrs): 0.76 % dose
- % dose in whole organ: Muscle (43% of body weight) (2 Hrs): 8.8 % dose
- Bone/Muscle ratio (2 Hrs): 32
- Ratio Bone/Blood (2 Hrs): 6.4
- Ratio Bone/Marrow (2 Hrs): 19
- % Dose in Whole Organ: Kidneys (4 Hrs): 0.34 % dose
- % Dose in Whole Organ: Liver (4 Hrs): 0.62 % dose
- % Dose in Whole Organ: One Femur (4 Hrs): 1.25 % dose
- % Dose: Urine (4 Hrs): 22.7 % dose
- % dose in whole organ: Blood (7% of body weight) (4 Hrs): 3.85 % dose
- % dose in whole organ: Bone(Avg) (10% of body weight) (4 Hrs): 68.1 % dose
- % dose in whole organ: Marrow (2.2% of body weight) (4 Hrs): 0.50 % dose
- % dose in whole organ: Muscle (43% of body weight) (4 Hrs): 6.46 % dose
- Bone/Muscle ratio (4 Hrs): 47
- Ratio Bone/Blood (4 Hrs): 13
- Ratio Bone/Marrow (4 Hrs): 32
- Ratio Callus/N. Femur (4 Hrs): 7
- Ratio Callus/N. Tibia (4 Hrs): 8
- Ratio Plus/Blood (4 Hrs): 81
- % Dose in Whole Organ: Kidneys (24 Hrs): 0.03 % dose
- % Dose in Whole Organ: Liver (24 Hrs): 0.04 % dose
- % Dose in Whole Organ: One Femur (24 Hrs): 0.93 % dose
- % dose in whole organ: Blood (7% of body weight) (24 Hrs): 0.29 % dose
- % dose in whole organ: Bone(Avg) (10% of body weight) (24 Hrs): 51.9 % dose
- % dose in whole organ: Marrow (2.2% of body weight) (24 Hrs): 0.10 % dose
- % dose in whole organ: Muscle (43% of body weight) (24 Hrs): 1.00 % dose
- Bone/Muscle ratio (24 Hrs): 227
- Ratio Bone/Blood (24 Hrs): 134
- Ratio Bone/Marrow (24 Hrs): 119

Source: patent publication US4032625A, “Bone-seeking technetium-99m complex” (priority 1975, dated 1977)
